Measurements as given in US20240384268A1, “Oligonucleotides” (Hudson Institute of Medical Research, priority 2021, published 2024).
In the oligonucleotide strings, read from the 5' end, every base follows the letter of its sugar. An asterisk marks phosphorothioate; unmarked linkages are phosphodiester. Other units and linkages are bracketed, terminal groups are in braces. A string of capitals states the bases alone. d = 2'-deoxy (DNA)

biological target: T1, TLR3 (Homo sapiens, UniProt O15455); assay: HEK-TLR3 NF-κB-luciferase reporter, poly(I:C) stimulation; format: cell-based; set-up: host or cells: HEK-Blue hTLR3 (HEK293); conditions: 500 nM ASOs/ODNs, poly(I:C) 1 μg/ml
T1 sequence (O15455 24-904): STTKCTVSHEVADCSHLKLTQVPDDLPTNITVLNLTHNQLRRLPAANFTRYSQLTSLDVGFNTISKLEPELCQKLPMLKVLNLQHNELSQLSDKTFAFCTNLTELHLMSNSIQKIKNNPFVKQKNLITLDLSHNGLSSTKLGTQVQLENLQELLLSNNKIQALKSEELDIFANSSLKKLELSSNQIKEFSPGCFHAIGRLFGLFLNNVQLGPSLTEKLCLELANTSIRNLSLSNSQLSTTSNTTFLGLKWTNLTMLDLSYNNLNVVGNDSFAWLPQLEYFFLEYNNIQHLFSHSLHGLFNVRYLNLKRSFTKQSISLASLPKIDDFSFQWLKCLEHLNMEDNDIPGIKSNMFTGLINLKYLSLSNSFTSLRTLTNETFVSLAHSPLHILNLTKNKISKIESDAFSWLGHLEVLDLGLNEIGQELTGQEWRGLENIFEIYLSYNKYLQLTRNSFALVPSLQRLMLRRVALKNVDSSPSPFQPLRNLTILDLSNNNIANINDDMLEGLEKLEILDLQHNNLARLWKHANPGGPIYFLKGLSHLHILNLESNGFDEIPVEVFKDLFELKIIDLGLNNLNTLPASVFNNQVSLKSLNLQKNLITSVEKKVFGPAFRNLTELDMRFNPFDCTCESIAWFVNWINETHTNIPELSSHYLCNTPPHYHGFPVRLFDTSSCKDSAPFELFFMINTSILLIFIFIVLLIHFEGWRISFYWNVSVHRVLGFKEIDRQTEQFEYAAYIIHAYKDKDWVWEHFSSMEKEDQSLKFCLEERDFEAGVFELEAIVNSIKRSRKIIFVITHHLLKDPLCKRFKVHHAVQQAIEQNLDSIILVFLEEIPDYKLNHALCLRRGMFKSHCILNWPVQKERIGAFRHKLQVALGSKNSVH

“T*G*C* T*T*G* A*C*A* T*C*C* T*G*G* A*G*G* G*G*T* T*G*T (TGCTTGACATCCTGGAGGGGTTGT; DNA, all phosphorothioate, methylation of C not given here) [IRS957, reference compound]” was tested. Which “inhibition of polyI:C sensing by TLR3 at 500 nM (in words)” value (shortened to “inhibition of polyI:C sensing by TLR3”) did it give?
Its value is “blocked polyL:C sensing”.

Which “inhibition of polyI:C sensing by TLR3” value does the source give for “T*G*C* T*T*G* C*A*A* G*C*T* T*G*C* A*A*G* C*A (TGCTTGCAAGCTTGCAAGCA; DNA, all phosphorothioate, methylation of C not given here) [IRS661, reference compound]” here?
Its value is “blocked polyL:C sensing”.

How did the “inhibition of polyI:C sensing by TLR3” value turn out when “T*T*C* A*A*A* T*T*C* A*A*A* T*T*C* A*A*A* T*T*C* A*A*A (dT*dT*dC*dA*dA*dA*dT*dT*dC*dA*dA*dA*dT*dT*dC*dA*dA*dA*dT*dT*dC*dA*dA*dA) [C151, reference compound]” was run?
Its value is “only partially reduced polyL:C-dependent TLR3 activation”.

same assay, conditions: 2 μM 3-mer DNA PS, 500 ng/ml polyI:C

With dT*dA*dC [TAC] as the substance, how does the “inhibition of TLR3 sensing by 3-mer DNA PS oligos” value read?
The value was “strongest DNA 3-mer”.

same assay, conditions: 3-mers DNA PS 45 min, then 500 ng/ml polyI:C overnight, NF-κB-luciferase normalised to polyI:C only (Ligand 1.000, NT 0.000)

With dT*dG*dC [TGC] as the substance, how does the “TLR3 2uM” value read?
The value was 0.795.

How did the “TLR3 2uM” value turn out when dT*dG*dA [TGA] was run?
The value was 0.743.

For dC*dT*dA [CTA], which “TLR3 2uM” value is on record?
Its value is 0.864.

Which “TLR3 2uM” value does the source give for dA*dA*dT [AAT] here?
The value was 0.877.

With dG*dC*dT [GCT] as the substance, how does the “TLR3 2uM” value read?
Its value is 0.998.

For dA*dC*dT [ACT], which “TLR3 2uM” value is on record?
The value was 0.818.

With dC*dT*dG [CTG] as the substance, how does the “TLR3 2uM” value read?
Its value is 0.843.

With dC*dA*dT [CAT] as the substance, how does the “TLR3 2uM” value read?
Its value is 0.828.

dT*dG*dG [TGG] was tested. Which “TLR3 2uM” value did it give?
The value was 0.773.

For dT*dC*dT [TCT], which “TLR3 2uM” value is on record?
Its value is 1.230.

How did the “TLR3 2uM” value turn out when dC*dC*dT [CCT] was run?
Its value is 0.914.

For dC*dT*dT [CTT], which “TLR3 2uM” value is on record?
Its value is 0.901.

With dT*dA*dC [TAC] as the substance, how does the “TLR3 2uM” value read?
Its value is 0.704.

dT*dT*dC [TTC] was tested. Which “TLR3 2uM” value did it give?
Its value is 0.928.

For dC*dG*dT [CGT], which “TLR3 2uM” value is on record?
Its value is 0.755.

Which “TLR3 2uM” value does the source give for dT*dC*dG [TCG] here?
The value was 0.931.

How did the “TLR3 2uM” value turn out when dG*dT*dA [GTA] was run?
The value was 0.818.

For dT*dA*dG [TAG], which “TLR3 2uM” value is on record?
Its value is 0.769.

For dT*dT*dG [TTG], which “TLR3 2uM” value is on record?
Its value is 0.990.

With dA*dG*dT [AGT] as the substance, how does the “TLR3 2uM” value read?
Its value is 0.865.

dT*dC*dA [TCA] was tested. Which “TLR3 2uM” value did it give?
The value was 0.792.

Which “TLR3 2uM” value does the source give for dT*dT*dA [TTA] here?
Its value is 0.855.

With dT*dT*dT [TTT] as the substance, how does the “TLR3 2uM” value read?
The value was 1.139.

For dG*dT*dT [GTT], which “TLR3 2uM” value is on record?
The value was 1.009.

With dA*dT*dG [ATG] as the substance, how does the “TLR3 2uM” value read?
The value was 0.849.

For dA*dT*dA [ATA], which “TLR3 2uM” value is on record?
The value was 0.827.

How did the “TLR3 2uM” value turn out when dG*dA*dT [GAT] was run?
Its value is 0.864.

How did the “TLR3 2uM” value turn out when dT*dA*dA [TAA] was run?
The value was 0.968.

For dG*dT*dC [GTC], which “TLR3 2uM” value is on record?
Its value is 0.914.

With dA*dT*dT [ATT] as the substance, how does the “TLR3 2uM” value read?
Its value is 1.012.

For dG*dG*dT [GGT], which “TLR3 2uM” value is on record?
Its value is 0.959.

dA*dT*dC [ATC] was tested. Which “TLR3 2uM” value did it give?
The value was 0.834.

Which “TLR3 2uM” value does the source give for dC*dT*dC [CTC] here?
The value was 0.911.

How did the “TLR3 2uM” value turn out when dG*dT*dG [GTG] was run?
Its value is 0.929.

How did the “TLR3 2uM” value turn out when dT*dG*dT [TGT] was run?
Its value is 0.884.

With dT*dC*dC [TCC] as the substance, how does the “TLR3 2uM” value read?
Its value is 0.868.

dT*dA*dT [TAT] was tested. Which “TLR3 2uM” value did it give?
Its value is 0.877.

biological target: T2, human TLR7 (Homo sapiens, UniProt Q9NYK1); assay: HEK-TLR7 NF-κB-luciferase reporter, R848 stimulation; format: cell-based; conditions: HEK-TLR7; 2 μM 3-mer DNA on a PS backbone; R848
T2 construct: HA; host or cells: 293XL-hTLR7-HA (HEK293)
T2 sequence (Q9NYK1 27-1049): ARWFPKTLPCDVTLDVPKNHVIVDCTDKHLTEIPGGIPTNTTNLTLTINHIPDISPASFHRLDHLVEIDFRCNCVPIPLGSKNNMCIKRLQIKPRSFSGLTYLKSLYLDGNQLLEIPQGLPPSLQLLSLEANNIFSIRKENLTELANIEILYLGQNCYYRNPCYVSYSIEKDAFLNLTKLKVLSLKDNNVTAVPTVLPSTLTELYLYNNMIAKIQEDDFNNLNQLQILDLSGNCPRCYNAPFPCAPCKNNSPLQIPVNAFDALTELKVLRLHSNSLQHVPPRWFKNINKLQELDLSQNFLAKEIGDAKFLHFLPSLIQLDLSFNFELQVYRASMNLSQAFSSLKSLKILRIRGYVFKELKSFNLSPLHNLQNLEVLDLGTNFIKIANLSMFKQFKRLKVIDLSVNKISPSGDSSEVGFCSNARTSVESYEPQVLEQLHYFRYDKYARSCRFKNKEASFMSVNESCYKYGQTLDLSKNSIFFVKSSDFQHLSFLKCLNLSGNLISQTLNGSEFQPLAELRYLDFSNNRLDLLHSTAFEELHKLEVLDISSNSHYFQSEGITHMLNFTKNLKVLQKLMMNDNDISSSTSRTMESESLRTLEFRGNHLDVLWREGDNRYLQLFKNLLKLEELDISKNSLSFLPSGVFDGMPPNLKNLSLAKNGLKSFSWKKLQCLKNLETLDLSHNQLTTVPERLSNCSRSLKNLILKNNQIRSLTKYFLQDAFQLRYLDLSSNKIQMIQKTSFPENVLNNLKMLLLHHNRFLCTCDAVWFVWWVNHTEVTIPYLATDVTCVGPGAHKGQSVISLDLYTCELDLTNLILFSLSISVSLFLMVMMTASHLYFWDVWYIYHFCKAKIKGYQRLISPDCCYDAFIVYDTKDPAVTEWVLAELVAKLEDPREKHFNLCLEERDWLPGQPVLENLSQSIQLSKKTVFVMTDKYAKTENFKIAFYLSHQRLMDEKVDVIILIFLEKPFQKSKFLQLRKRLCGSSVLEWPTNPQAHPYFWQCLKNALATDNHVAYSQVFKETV
Method: In such examples, inhibition of TLR7 activity can be identified by observation of an overall decreased TLR7 response of the cell population, or a lower proportion of cells having TLR7-positive activity as compared to positive control condition in which cells are treated with TLR7 agonist in the absence of the oligonucleotide (or in the presence of an appropriate control inhibitory agent). In one example, 293XLhTLR7 (referred to as HEK-TLR7) cells are transfected with pNF-κB-Luc4 reporter, incubated with an oligonucleotide, and then stimulated with R848. TLR7 activity can be determined by a luciferase assay, which measures activated NF-κB by luminescence. TLR7 activity can also be analysed by measuring cytokine levels, for example by ELISA. […] TLR7 activity may then be assessed by the gene or protein expression of TLR7-responsive genes, such as Tnfα and Oas3.
For cGAS stimulations, cells were treated for indicated duration with ASOs, prior to transfection with ISD70 (human cells) or ISD45 (mouse cells) (the ASOs were not washed off prior to ISD transfection unless otherwise indicated). The cGAS ligands ISD45 (Stetson and Medzhitov, 2006) and ISD70 (also known as VACV-70 (Unterholzner et al., 2010)) (Table 1) were resuspended as follows: 5 1d of sense and 5 μl of antisense strands at 10 μg/μl were added to 90 μl PBS under sterile conditions, heated at 75° C. for 30 min, prior to letting cool down at room temperature and aliquoting (stock at 1 μg/1 l). The ISDs were transfected at a concentration of […] at a ratio of 1 μg:1 μl with Lipofectamine 2000 in Opti-MEM (Thermo Fisher Scientific). HEK-TLR3, HEK-TLR7 and […] were treated with indicated concentration of ASOs for 20-50 min, prior to stimulation with poly(I:C) (Invivogen), R848 (Invivogen), Motolimod (MedChemExpress) and the Class B CpG oligonucleotides ODN 2006 (synthesised by IDT and resuspended in RNase-free TE buffer [Table 1]), respectively. The TLR2/1 agonist PAM3CSK4 (Invivogen), the TLR4 agonist lipopolysaccharide (Invivogen), the Class B CpG oligonucleotides ODN 1826 (synthesised by IDT and resuspended in RNase-free TE buffer), the mouse Sting agonist DMXAA (Cayman) and the human STING agonist (compound #3 from (Raanjulu et al., 2018), referred to as GSK herein—kind gift from Cancer Therapeutics CRC, Australia) were used at indicated concentrations. Aspirin (Sigma—A2093) was resuspended in pure medium to 10 mM, filter sterilised and added to the cells at 2 mM final. All ASOs were synthesised by Integrated DNA Technologies (IDT), and resuspended in RNase-free TE buffer, pH 8.0 (Thermo Fisher Scientific). Cell viability was assessed by adding 1× fresh resazurin solution to the wells (10λ solution made up with 7 mg resazurin [Sigma—R7017] dissolved in 3.5 ml PBS, sterile filtered at […]) for 4 h, prior to reading at with a Fluostar OPTIMA (BMG LABTECH) plate-reader (fluorescence: Excitation 535 nm, Emission 590); wells with medium only and 1× resazurin were used as blanks.
Following transfection, the cells were collected from the 6-wells and aliquoted into 96-wells, just before ASO and overnight TLR stimulation (as above described). Similarly, the LL171 cells expressing and ISRE-Luc reporter were treated overnight.

With dT*dC*dT [TCT] as the substance, how does the “inhibition of TLR7 by 3-mer DNA PS oligos” value read?
Its value is “two most potent DNA 3-mers inhibiting TLR7”.

Which “inhibition of TLR7 by 3-mer DNA PS oligos” value does the source give for dT*dT*dT [TTT] here?
The value was “two most potent DNA 3-mers inhibiting TLR7”.
